Counter-ions that a name gives are not always drawn.
molecular target: human factor IXa (Homo sapiens (Human), UniProt P00740); experiment: Determination of inhibitory activity against factor IXa (SPECTROFLUOR FIXa fluorogenic substrate enzyme assay); type: biochemical; conditions: human factor IXa 2.0 μg/ml, SPECTROFLUOR FIXa 100 μM, 60 minutes at room temperature, pH 8.0; read-out: Factor IXa enzyme assay IC50
Procedure: Inhibitory activity against factor IXa was tested using the substrate SPECTROFLUOR FIXa (american diagnostica inc.; 500 West Avenue, Stamford, Conn. 06902 USA; Pr. No. 299F) and human factor IXa (american diagnostica inc.; Pr. No. 449b). Test substances dissolved in buffer A (50 mM α,α,α-tris(hydroxymethyl)methylamine (Tris), 100 mM NaCl, 5 mM CaCl2, 15% (v/v) ethylene glycol, pH 8.0) were mixed with factor IXa (2.0 μg/ml final concentration). The enzyme reaction was started by addition of SPECTROFLUOR FIXa (100 μM final concentration). After incubation for 60 minutes at room temperature, the reaction was stopped by the addition of 20% (v/v) acetic acid solution, and then measured the fluorescence value (Excitation Wavelength: 355 nm, Emission Wavelength; 460 nm) in a microtiter plate reader (ARVO 1420 Multilabel Counter; PerkinElmer).
The IC50 was calculated from a dilution series of the test substance with the aid of the software, Symix Assay Explorer (Symyx Technologies, Inc.).

human factor IXa, sequence (P00740 227-461): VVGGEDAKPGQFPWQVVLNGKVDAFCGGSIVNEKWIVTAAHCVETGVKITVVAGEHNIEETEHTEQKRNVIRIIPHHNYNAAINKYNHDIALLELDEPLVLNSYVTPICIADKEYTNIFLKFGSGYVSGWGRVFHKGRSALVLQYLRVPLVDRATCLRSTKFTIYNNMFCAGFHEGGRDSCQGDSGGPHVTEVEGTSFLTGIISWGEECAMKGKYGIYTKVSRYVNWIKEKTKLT
human factor IXa, sequence (P00740 47-191 partner): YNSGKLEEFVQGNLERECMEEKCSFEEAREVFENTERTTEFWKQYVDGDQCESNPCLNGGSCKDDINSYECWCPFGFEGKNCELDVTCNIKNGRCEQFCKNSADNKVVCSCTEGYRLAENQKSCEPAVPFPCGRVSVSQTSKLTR

IC50	SMILES
66 nM	N#Cc1ccccc1N1CCO[C@H]([C@@H](O)C(=O)Nc2ccc3c(c2)CNC3=N)C1=O [Example aa142, 4-(2-Cyanophenyl)-N-(2,3-dihydro-1-imino-1h-isoindol-5-yl)-alpha(R)-hydroxy-3-oxo-2(R)-morpholine acetamide]
13 nM	N=C1NCc2cc(NC(=O)[C@H](O)[C@H]3OCCN(c4ccc(F)c(C(=O)N5CCOCC5)c4)C3=O)ccc21 [Example aa144, N-(2,3-Dihydro-1-imino-1h-isoindol-5-yl)-4-[4-fluoro-3-(4-morpholinylcarbonyl)phenyl]-alpha(R)-hydroxy-3-oxo-2(R)-morpholineacetamide]
380 nM	Nc1noc2cc(NC(=O)[C@H](O)[C@H]3OCCN(c4ccc(S(F)(F)(F)(F)F)cc4)C3=O)ccc12 [Example aa151, [4-[2(R)-[2-[(3-Amino-1,2-bcnzisoxazol-6-yl)amino]-1(R)-hydroxy-2-oxoethyl]-3-oxo-4-morpholinyl]phenyl] pentafluorosulfur]
1200 nM	Nc1noc2cc(NC(=O)[C@H](O)[C@H]3OCCN(c4ccc(F)c(C(=O)N5CCOCC5)c4)C3=O)c(F)cc12 [Example aa152, N-(3-Amino-5-fluoro-1,2-benzisoxazol-6-yl)-4-[4-fluoro-3-(4-morpholinylcarbonyl)phenyl]-alpha(R)-hydroxy-3-oxo-2(R)-morpholineacetamide]

same assay, conditions: human factor IXa 2.0 μg/ml, SPECTROFLUOR FIXa 100 μM, 60 minutes at room temperature, pH 8.0; read-out: Factor IXa enzyme assay IC50 [micro M]

SMILES	IC50
CC(=O)N1CCN(c2ccc(C)cc2)C(=O)C1C(O)C(=O)Nc1ccc2c(N)nccc2c1 (stereo not shown) [Example 109, 2-[1-acetyl-3-oxo-4-(p-tolyl)piperazin-2-yl]-N-(1-amino-6-isoquinolyl)-2-hydroxy-acetamide trifluoroacetate]	60 nM
CC(C)(C)c1ccc(N2CCO[C@H]([C@@H](O)C(=O)Nc3ccc(C(=N)N)cc3F)C2=O)cc1 [Example 67, (2R)—N-(4-amidino-2-fluorophenyl)-2-[(2R)-4-(4-tert-butylphenyl)-3-oxomorpholin-2-yl]-2-hydroxyacetamide acetate]	60 nM
Cc1ccc(N2CCOC(C(O)C(=O)Nc3ccc4c(N)nccc4c3)C2=O)cc1 (stereo not shown) [Example 1, N-(1-aminoisoquinolin-6-yl)-2-hydroxy-2-(3-oxo-4-p-tolylmorpholin-2-yl)acetamide trifluoroacetate]	40 nM
Cc1ccc(N2CCOC(C(O)C(=O)Nc3ccc(C(=N)N)cc3)C2=O)cc1 (stereo not shown) [Example 2, N-(4-amidinophenyl)-2-hydroxy-2-(3-oxo-4-p-tolylmorpholin-2-yl)acetamide trifluoroacetate]	30 nM

Continued, values first:

IC50	SMILES
10 nM	CS(=O)(=O)c1ccccc1-c1ccc(N2CCO[C@H]([C@@H](O)C(=O)Nc3ccc(C(=N)N)cc3)C2=O)cc1 [Example 105, (2R)—N-(4-amidinophenyl)-2-hydroxy-2-[(2R)-4-[4-(2-methylsulfonylphenyl)phenyl]-3-oxomorpholin-2-yl]acetamide hydrochloride]
30 nM	Cc1ccc(N2CCCO[C@H]([C@@H](O)C(=O)Nc3ccc(C(=N)N)cc3)C2=O)cc1 [Example 114, (2R)—N-(4-amidinophenyl)-2-hydroxy-2-[(2R)-3-oxo-4-(p-tolyl)-1,4-oxazepan-2-yl]acetamide hydrochloride]
20 nM	Cc1ccc(N2CCO[C@H]([C@@H](O)C(=O)Nc3ccc4c(N)nccc4c3)C2=O)cc1 [Example 62, (2R)—N-(1-aminoisoquinolin-6-yl)-2-hydroxy-2-[(2R)-3-oxo-4-p-tolylmorpholin-2-yl]acetamide hydrochloride]
20 nM	N=C(N)c1ccc(NC(=O)[C@H](O)[C@H]2OCCN(c3ccc(C4CCCCC4)cc3)C2=O)cc1 [Example 15, (2R)—N-(4-amidinophenyl)-2-[(2R)-4-(4-cyclohexylphenyl)-3-oxomorpholin-2-yl]-2-hydroxyacetamide hydrochloride]
20 nM	N=C(N)c1ccc(NC(=O)[C@H](O)[C@H]2OCCN(c3cccc(NC(=O)CO)c3)C2=O)cc1 [Example 50, (2R)—N-(4-amidinophenyl)-2-hydroxy-2-[(2R)-4-[3-[(2-hydroxyacetyl)amino]phenyl]-3-oxomorpholin-2-yl]acetamide hydrochloride]

Reference: patent US8987242B2, “Morpholinone compounds as factor IXA inhibitors” (Merck Sharp & Dohme Corp., priority 2008, dated 2015)
